Experimental data taken from US12612420B2, “Arginase inhibitors and methods of use thereof” (Molecure S.A., priority 2020, dated 2026).
Where a name gives a salt, the structure may show the parent alone.

Columns and labels:
[1] = biological target: T1, recombinant human arginase 1 (hARG1) (Homo sapiens, UniProt P05089); assay: Human arginase inhibition assay (colorimetric urea detection), arginase 1; assay type: biochemical; details: IC50 class; hydrochloride salts; 1 h at 37° C., pH 7.4, 10 mM L-arginine, 200 μM MnCl2; read-out: Activity Class (ARG I)
T1 construct: made in house; host or cells: E. coli
T1 sequence (P05089 1-322): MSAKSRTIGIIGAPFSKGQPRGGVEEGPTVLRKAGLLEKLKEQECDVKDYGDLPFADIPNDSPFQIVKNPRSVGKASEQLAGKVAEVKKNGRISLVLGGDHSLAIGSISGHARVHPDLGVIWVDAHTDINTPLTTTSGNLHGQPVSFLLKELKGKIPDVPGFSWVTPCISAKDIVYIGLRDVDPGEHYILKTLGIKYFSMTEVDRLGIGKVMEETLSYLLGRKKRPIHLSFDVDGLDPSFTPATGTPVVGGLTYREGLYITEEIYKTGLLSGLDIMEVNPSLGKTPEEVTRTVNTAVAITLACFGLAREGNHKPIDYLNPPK
Protocol: (§1) Human Arginase Inhibition Assay
(§2) The inhibitory activities of the compounds of the invention were assessed using recombinant human arginases 1 and 2. Both enzymes were biosynthesized using a prokaryotic expression system (E. coli) and purified by fast protein liquid chromatography (FPLC). The compounds were screened in 96-well plates at the total reaction volume of 100 μL. Briefly, recombinant enzymes were incubated with the tested compounds for 1 h at 37° C. in the reaction buffer (100 mM sodium phosphate buffer, 130 mM NaCl, 1 mg/mL BSA, pH 7.4) containing substrate (L-arginine hydrochloride, 10 mM for hARG1 and 20 mM for hARG2) and cofactor (200 μM MnCl2). The assay is based on the detection of urea, which is generated during the conversion of L-arginine into L-omithine catalyzed by ARG1 or ARG2 (Baggio et al. J Pharmacol. Exp. Ther. 1999, 290, 1409-1416). The colorimetrically detectable product was developed by adding a mixture of reagent A (4 mM oPA, 50 mM boric acid, 1 M sulfuric acid, 0.03% Brij-35) and reagent B (4 mM NED, 50 mM boric acid, 1 M sulfuric acid, 0.03% Brij-35) in equal proportions. The absorbance for each well was measured at 515 nm and the enzyme inhibition was calculated. The urea production in the absence of any tested compound was considered as maximal enzyme activity. The absorbance at the absence of arginase (background) was subtracted from all the values. The normalized values were analyzed using GraphPad Prism 7.0 software by plotting inhibition curves and determining the IC50 values.
(§3) The inhibitory activity classes of the hydrochloride salts of the exemplary compounds according to the invention are presented in Table 1

[2] = biological target: T2, recombinant human arginase 2 (hARG2) (Homo sapiens, UniProt P78540); assay: Human arginase inhibition assay (colorimetric urea detection), arginase 2; assay type: biochemical; details: IC50 class; hydrochloride salts; 1 h at 37° C., pH 7.4, 20 mM L-arginine, 200 μM MnCl2; read-out: Activity Class (ARG II)
T2 construct: made in house; host or cells: E. coli
T2 sequence (P78540 23-354): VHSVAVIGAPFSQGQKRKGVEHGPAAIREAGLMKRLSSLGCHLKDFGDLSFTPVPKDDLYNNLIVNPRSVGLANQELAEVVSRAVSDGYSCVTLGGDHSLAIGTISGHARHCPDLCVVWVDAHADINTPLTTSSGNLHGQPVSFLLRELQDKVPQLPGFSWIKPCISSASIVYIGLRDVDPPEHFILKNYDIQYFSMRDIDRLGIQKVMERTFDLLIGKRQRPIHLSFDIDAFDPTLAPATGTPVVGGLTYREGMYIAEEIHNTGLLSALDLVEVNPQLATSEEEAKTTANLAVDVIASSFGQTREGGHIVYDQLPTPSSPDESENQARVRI
Protocol: as §1, §2, §3

| Compound | IC50 [1] [nM] | IC50 [2] [nM] |
| --- | --- | --- |
| N[C@@H](CS)C(=O)NC[C@@H]1CC[C@@H](CCB(O)O)C[C@]1(N)C(=O)O [Example 27, (1R,2S,5R)-1-Amino-2-(((R)-2-amino-3-mercaptopropanamido)methyl)-5-(2-boronoethyl)cyclohexane-1-carboxylic acid dihydrochloride] | 200 to 299 | > 300 |
| C[C@@H](N)C(=O)NC[C@@H]1CC[C@@H](CCB(O)O)C[C@]1(N)C(=O)O [Example 22, (1R,2S,5R)-1-Amino-2-(((R)-2-aminopropanamido)methyl)-5-(2-boronoethyl)cyclohexane-1-carboxylic acid dihydrochloride] | 1 to 99 | > 300 |
| CC(C)[C@H](N)C(=O)NC[C@@H]1CC[C@@H](CCB2OC(=O)CC(CC(=O)O)(C(=O)O)O2)C[C@]1(N)C(=O)O (stereo partly drawn) [Example 33, 2-(2-((1R,3R,4S)-3-Amino-4-(((S)-2-amino-3-methylbutanamido)methyl)-3-carboxycyclohexyl)ethyl)-4-(carboxymethyl)-6-oxo-1,3,2-dioxaborinane-4-carboxylic acid dihydrochloride] | 100 to 199 | > 300 |
| N[C@@H](Cc1c[nH]c2ccccc12)C(=O)NC[C@@H]1CC[C@@H](CCB(O)O)C[C@]1(N)C(=O)O [Example 18, (1R,2S,5R)-1-Amino-2-(((S)-2-amino-3-(1H-indol-3-yl)propanamido)methyl)-5-(2-boronoethyl)cyclohexane-1-carboxylic acid dihydrochloride] | 100 to 199 | > 300 |
| N[C@H](C(=O)NC[C@@H]1CC[C@@H](CCB(O)O)C[C@]1(N)C(=O)O)C1CCCC1 [Example 11, (1R,2S,5R)-1-Amino-2-(((S)-2-amino-2-cyclopentylacetamido)methyl)-5-(2-boronoethyl)cyclohexane-1-carboxylic acid dihydrochloride] | 1 to 99 | 100 to 199 |
| COC(=O)[C@@]1(N)C[C@H](CCB(O)O)CC[C@H]1CNC(=O)[C@@H](N)C(C)C [Example 32, (2-((1R,3R,4S)-3-Amino-4-(((S)-2-amino-3-methylbutanamido)methyl)-3-(methoxycarbonyl)cyclohexyl)ethyl)boronic acid dihydrochloride] | > 300 | > 300 |
| CC(C)[C@@H](N)C(=O)NC[C@@H]1CC[C@@H](CCB(O)O)C[C@]1(N)C(=O)O [Example 23, (1R,2S,5R)-1-Amino-2-(((R)-2-amino-3-methylbutanamido)methyl)-5-(2-boronoethyl)cyclohexane-1-carboxylic acid dihydrochloride] | 1 to 99 | > 300 |
| N[C@@H](Cc1ccc(O)cc1)C(=O)NC[C@@H]1CC[C@@H](CCB(O)O)C[C@]1(N)C(=O)O [Example 14, (1R,2S,5R)-1-Amino-2-(((S)-2-amino-3-(4-hydroxyphenyl)propanamido)methyl)-5-(2-boronoethyl)cyclohexane-1-carboxylic acid dihydrochloride] | 200 to 299 | > 300 |
| Cn1cc(C[C@@H](N)C(=O)NC[C@@H]2CC[C@@H](CCB(O)O)C[C@]2(N)C(=O)O)c2ccccc21 [Example 26, (1R,2S,5R)-1-Amino-2-(((R)-2-amino-3-(1-methyl-1H-indol-3-yl)propanamido)methyl)-5-(2-boronoethyl)cyclohexane-1-carboxylic acid dihydrochloride] | 100 to 199 | > 300 |
| CC(C)(O)[C@H](N)C(=O)NC[C@@H]1CC[C@@H](CCB(O)O)C[C@]1(N)C(=O)O [Example 16, (1R,2S,5R)-1-Amino-2-(((S)-2-amino-3-hydroxy-3-methylbutanamido)methyl)-5-(2-boronoethyl)cyclohexane-1-carboxylic acid dihydrochloride] | 100 to 199 | > 300 |
| NC(=O)C[C@H](N)C(=O)NC[C@@H]1CC[C@@H](CCB(O)O)C[C@]1(N)C(=O)O [Example 15, (1R,2S,5R)-1-Amino-5-(2-boronoethyl)-2-(((S)-2,4-diamino-4-oxobutanamido)methyl)cyclohexane-1-carboxylic acid dihydrochloride] | 200 to 299 | > 300 |
| CN[C@]1(C(=O)O)C[C@H](CCB(O)O)CC[C@H]1CNC(=O)[C@H](C)N [Example 36, (1R,2S,5R)-2-(((S)-2-Aminopropanamido)methyl)-5-(2-boronoethyl)-1-(methylamino)cyclohexane-1-carboxylic acid dihydrochloride] | > 300 | > 300 |
| N[C@@H](Cc1c[nH]cn1)C(=O)NC[C@@H]1CC[C@@H](CCB(O)O)C[C@]1(N)C(=O)O [Example 8, (1R,2S,5R)-1-Amino-2-(((S)-2-amino-3-(1H-imidazol-4-yl)propanamido)methyl)-5-(2-boronoethyl)cyclohexane-1-carboxylic acid trihydrochloride] | 100 to 199 | > 300 |
| NC(=O)CC[C@H](N)C(=O)NC[C@@H]1CC[C@@H](CCB(O)O)C[C@]1(N)C(=O)O [Example 28, (1R,2S,5R)-1-Amino-5-(2-boronoethyl)-2-(((S)-2,5-diamino-5-oxopentanamido)methyl)cyclohexane-1-carboxylic acid dihydrochloride] | 100 to 199 | > 300 |
| N[C@@H](CC(=O)O)C(=O)NC[C@@H]1CC[C@@H](CCB(O)O)C[C@]1(N)C(=O)O [Example 29, (1R,2S,5R)-1-Amino-2-(((S)-2-amino-3-carboxypropanamido)methyl)-5-(2-boronoethyl)cyclohexane-1-carboxylic acid dihydrochloride] | > 300 | > 300 |
| CCC[C@H](N)C(=O)NC[C@@H]1CC[C@@H](CCB(O)O)C[C@]1(N)C(=O)O [Example 20, (1R,2S,5R)-1-Amino-2-(((S)-2-aminopentanamido)methyl)-5-(2-boronoethyl)cyclohexane-1-carboxylic acid dihydrochloride] | 1 to 99 | > 300 |
| CCN[C@]1(C(=O)O)C[C@H](CCB(O)O)CC[C@H]1CNC(=O)[C@H](C)N [Example 35, (1R,2S,5R)-2-(((S)-2-Aminopropanamido)methyl)-5-(2-boronoethyl)-1-(ethylamino)cyclohexane-1-carboxylic acid dihydrochloride] | > 300 | > 300 |
| C[C@H](N)C(=O)N(C)C[C@@H]1CC[C@@H](CCB(O)O)C[C@]1(N)C(=O)O [Example 24, (1R,2S,5R)-1-Amino-2-(((S)-2-amino-N-methylpropanamido)methyl)-5-(2-boronoethyl)cyclohexane-1-carboxylic acid dihydrochloride] | 100 to 199 | > 300 |
| N[C@@H](CCC(=O)O)C(=O)NC[C@@H]1CC[C@@H](CCB(O)O)C[C@]1(N)C(=O)O [Example 30, (1R,2S,5R)-1-Amino-2-(((S)-2-amino-4-carboxybutanamido)methyl)-5-(2-boronoethyl)cyclohexane-1-carboxylic acid dihydrochloride] | > 300 | > 300 |
| C[C@H](N)C(=O)NC[C@@H]1CC[C@@H](CCB(O)O)C[C@]1(N)C(=O)O [Example 1, (1R,2S,5R)-1-Amino-2-(((S)-2-aminopropanamido)methyl)-5-(2-boronoethyl)cyclohexane-1-carboxylic acid dihydrochloride] | 100 to 199 | > 300 |
